Results reported in US20110224297A1, “Methods of administering prostratin and structural analogs thereof” (priority 2008, published 2011).

Legend:
[1] = system: resting CD4+ T cells derived from HIV positive patients; assay: Induction of HIV-1 expression in resting CD4+ T cells from HIV positive patients on HAART (p24, co-culture); format: cell-based, human; conditions: VPA at 1 mM added to cultures treated with prostratin
Procedure: The ability of prostratin to induce HIV-1 expression in cultures of highly purified resting CD4+ T cells derived from six HIV positive patients on HAART therapy with undetectable plasma viral load (<50 copies/ml) and CD4 cell counts above 350 cells/mm^3 was evaluated. PBMCs were separated using Ficol Hypaque gradient and resting CD4+ T cells were purified using commercially available CD4+ T cell isolation kit (Miltenyi Biotec) Immediately after purification, resting CD4+ T cells were treated for 3 days with two antiretrovirals to which the patient had not previously been exposed. Antiretrovirals were used at concentrations 10 times the 50% inhibitory concentration for wild-type HIV-1 to ensure elimination of any actively replicating virus. Three days after in vitro incubation with antiretrovirals, cells were washed and incubated for 5 h, 24 h, or 48 h with prostratin (50-500 ng/ml), in the absence or presence of 1 mM valproic acid (sodium salt, SIGMA), 10 μg/ml PHA (SIGMA), 50 U IL-2/ml (AIDS depository of reagents, NIH), or in the absence of drugs. At the end of each incubation period, cells were co-cultured with CD8-depleted PBMCs from healthy donors. P24 was measured at days 0, 4, 7, 14, 21, 28, 35 and 42 days.

[2] = In vitro metabolism in monkey primary hepatocytes; format: in vitro ADME; conditions: monkey hepatocytes of both genders
Procedure: (§1) ^3H-Prostratin was incubated in hepatocyte preparations with 0.75×10^6 hepatocytes/ml for 0, 30, 60, and 120 minutes. Hepatocytes were suspended in William's E medium and incubated with 1 μM or 4 μM ^3H-Prostratin at 37° C. in an atmosphere of 4.7-4.8% CO2. Hepatocyte incubations were terminated by addition of acetonitrile. Incubations were profiled for ^3H-Prostratin and metabolites by high performance liquid chromatography using a radioactivity detector.
(§2) Metabolites were subsequently analyzed by liquid chromatography/tandem mass spectrometry (LC/MS/MS) for putative identification. Seven predominant metabolites, identified as M1 through M6 according to their chromatographic order of elution, were detected among both genders of the three species, including two co-eluting metabolites labeled as M3A or M3B. Among the seven metabolites, five were putatively identified by LC/MS/MS, while structures could not be proposed for M2 and M3B.

[3] = In vitro metabolism in human primary hepatocytes; format: in vitro ADME
Procedure: as §1, §2

[4] = Quantitative whole body autoradiography of rats following oral administration; format: in vivo, Long Evans rats
Procedure: The absorption and distribution of ^3H-Prostratin were studied in male and female rats following a single oral administration at 0.2 mg/kg. Four Long Evans male and four Long Evans female rats, after an overnight fast, each received a single oral administration of ^3H-Prostratin as a solution in saline containing <1% of ethanol at a target dose of 0.2 mg/kg. For both males and females, one animal per time point per sex was sacrificed at 1, 4, 8, and 24 hours postdose and carcasses were prepared for whole-body autoradiography (WBA). Blood, plasma, and cellular fraction were analyzed by using liquid scintillation counting (LSC).

[5] = Extent of metabolism by hepatocytes, rank order across species and genders; format: in vitro ADME, rat, monkey, human; conditions: 1 μM and 4 μM; up to 120 minutes
Procedure: as §1, §2

[6] = In vitro metabolism in rat primary hepatocytes; format: in vitro ADME
Procedure: as §1, §2

[7] = female rats, single oral 0.2 mg/kg
[8] = male rats, single oral 0.2 mg/kg

Row | SMILES | enhancement of HIV-1 replication beyond the prostratin effect [1] | number of metabolites produced [2] | number of metabolites produced ([3]; both genders of human hepatocytes) | extent of metabolism in human compared with male monkeys ([3]; human hepatocytes) | unique human metabolites ([3]; human hepatocytes) | maximum blood concentration of radioactivity [4, 7] | maximum plasma concentration of radioactivity [4, 7] | time of maximum blood and plasma concentrations of radioactivity [4, 7] [hour postdose] | gender-related difference in tissue distribution of radioactivity ([4]; female versus male rats) | tissue distribution of radioactivity ([4]; male and female rats, single oral 0.2 mg/kg) | maximum blood concentration of radioactivity [4, 8] | maximum plasma concentration of radioactivity [4, 8] | time of maximum blood concentration of radioactivity [4, 8] [hours postdose] | time of maximum plasma concentration of radioactivity [4, 8] [hours postdose] | extent of metabolism by hepatocytes, rank order [5] | number of metabolites detected ([6]; female rat hepatocytes) | number of metabolites detected ([6]; male rat hepatocytes) | gender difference in metabolism ([6]; male rat versus female rat hepatocytes)
1 | CCCC(CCC)C(=O)O [VPA, valproic acid, reference compound] | did not significantly enhance |  |  |  |  |  |  |  |  |  |  |  |  |  |  |  |  | 
2 | CC(=O)O[C@@]12C[C@@H](C)[C@@]3(O)[C@@H](C=C(CO)C[C@]4(O)C(=O)C(C)=C[C@@H]34)[C@@H]1C2(C)C [^3H-Prostratin] |  | five | Five | considerably lower | no unique human metabolites | 59.7 ng equivalents ^3H-Prostratin/g | 63.7 ng equivalents ^3H-Prostratin/g | 1 | distributed more widely in female tissues than male tissues | Most of the radioactivity was found in the gastrointestinal (GI) tract | 30.5 ng equivalents ^3H-Prostratin/g | 53.5 ng equivalents ^3H-Prostratin/g | 1 | 4 | male monkey>male rat>>female monkey≈male human≈female human>female rat | two | Six | more rapid metabolism
